Source: patent US10869933B2, “Oligomer-phenothiazine conjugates” (Nektar Therapeutics, priority 2009, dated 2020)
Where two headings read alike, the source gives them in different places.

Assays:
[1] = target: T1, recombinant human M5 muscarinic acetylcholine receptor (Homo sapiens, UniProt P08912); assay: Muscarinic M5 receptor radioligand binding; conditions: 3H-N-Methylscopolamine 0.8 nM, CHO cell membranes
T1 construct: expressed in transfected cells; host or cells: CHO cells (membranes)
T1 sequence (P08912 1-532): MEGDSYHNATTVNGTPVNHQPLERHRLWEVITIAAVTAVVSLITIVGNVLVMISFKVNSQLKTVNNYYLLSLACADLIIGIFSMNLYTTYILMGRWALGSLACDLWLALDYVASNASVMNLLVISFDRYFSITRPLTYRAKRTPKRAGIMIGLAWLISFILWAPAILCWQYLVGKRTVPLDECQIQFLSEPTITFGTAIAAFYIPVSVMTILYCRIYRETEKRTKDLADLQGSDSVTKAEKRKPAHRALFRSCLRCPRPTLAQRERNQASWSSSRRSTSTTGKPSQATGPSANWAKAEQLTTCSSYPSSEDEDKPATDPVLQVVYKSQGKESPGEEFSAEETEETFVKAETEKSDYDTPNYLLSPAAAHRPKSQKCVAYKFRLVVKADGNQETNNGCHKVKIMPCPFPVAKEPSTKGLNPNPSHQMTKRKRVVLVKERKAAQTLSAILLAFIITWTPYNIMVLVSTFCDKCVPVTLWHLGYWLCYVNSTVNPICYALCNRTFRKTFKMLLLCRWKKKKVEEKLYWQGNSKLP

[2] = Log P determination (Sirius GLpKa); type: physicochemical; conditions: Partition Log P, average of three measurements
Protocol: (§1) A blank standardization has to be completed first and passed in order to conduct the compound experiments. The solutions used by the instrument for the blank titration include water, a pH solution, and a surfactant (TRITON X-100). The TRITON X-100 was purchased commercially from Sirus. The 0.5% solution of TRITON X-100 was used in the experiment. In a 1 L volumetric flask 5 mls of TRITON X-100 is added and MILLI Q water to volume. The vessels used by the instrument were filled to ⅓ of their volume with each solution. Therefore the assay tray contains one vessel for water, pH solution, and surfactant for the blank run. The temperature of the water bath for the instrument is 25° C. The blank is calculated as an average of three “good” experiments. The “good” was denoted by a green check mark next to the assay number in the computer software. Once the blank was run successfully the instrument was ready to conduct the experiments.
An additional method has to be set up for the Log P determinations for each compound. […] The vessels are placed in the assay tray of the instrument. The experimental parameters are entered into the computer. These included sample weight, molecular weight, assay type (Partition Log P), number of assays (three), and pKa value of the parent drug from the previous experiment. The run was started. There are three measurements for each run that are averaged to obtain the final results from the data points collected in the calculation software. All runs were denoted as “good” by the green check mark next to the assay number.

[3] = target: T2, recombinant human H4 histamine receptor (Homo sapiens, UniProt Q9H3N8); assay: Histamine H4 receptor radioligand binding; conditions: [3H]Histamine 8.2 nM, human rCHO-K1 cell membranes; up to 30 μM
T2 construct: expressed in transfected cells; host or cells: CHO cells (membranes)
T2 sequence (Q9H3N8 whole entry): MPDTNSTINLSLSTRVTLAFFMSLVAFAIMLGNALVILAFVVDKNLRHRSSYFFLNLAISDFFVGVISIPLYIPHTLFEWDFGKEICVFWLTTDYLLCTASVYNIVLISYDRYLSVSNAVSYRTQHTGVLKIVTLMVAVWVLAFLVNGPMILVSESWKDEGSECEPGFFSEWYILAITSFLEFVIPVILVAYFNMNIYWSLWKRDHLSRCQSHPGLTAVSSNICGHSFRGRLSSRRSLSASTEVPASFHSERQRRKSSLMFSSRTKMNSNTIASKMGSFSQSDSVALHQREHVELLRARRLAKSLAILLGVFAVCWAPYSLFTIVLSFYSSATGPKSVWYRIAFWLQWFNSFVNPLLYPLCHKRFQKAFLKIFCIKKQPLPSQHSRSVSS
Protocol: (§2) The radioligands used are specific for each receptor subtype and the assay conditions are described in Table 2. […] Ki is obtained using the Cheng Prusoff correction using experimental Kd vales that are determined under these assay conditions.

[4] = pKa determination (Sirius GLpKa); type: physicochemical
Protocol: as §1
The pKa had to be determined first in order to calculate the Log P. The ΔPI is used to determine the pKa needed for the Log P experiment followed by the conjugates. Promethazine was first weighed into a vessel. […] The same procedure was followed for each PEG-Promethazine conjugate n=3-9. The vessels were placed in the assay tray of the instrument. A method had to be set up for the pKa run. The experimental parameters are entered into the computer software. These included sample weight, molecular weight, assay type (aqueous pKa), number of assays (three), and titration range (generally 3.5-12). The run was started. There are three measurements for each run that are averaged to obtain the final results from the data points collected in the calculation software. All runs were denoted as “good” by the green check mark next to the assay number.

[5] = target: T3, recombinant human M2 muscarinic acetylcholine receptor (Homo sapiens, UniProt P08172); assay: Muscarinic M2 receptor radioligand binding; conditions: 3H-N-Methylscopolamine 0.8 nM, CHO cell membranes
T3 construct: expressed in transfected cells; host or cells: CHO cells (membranes)
T3 sequence (P08172 1-466): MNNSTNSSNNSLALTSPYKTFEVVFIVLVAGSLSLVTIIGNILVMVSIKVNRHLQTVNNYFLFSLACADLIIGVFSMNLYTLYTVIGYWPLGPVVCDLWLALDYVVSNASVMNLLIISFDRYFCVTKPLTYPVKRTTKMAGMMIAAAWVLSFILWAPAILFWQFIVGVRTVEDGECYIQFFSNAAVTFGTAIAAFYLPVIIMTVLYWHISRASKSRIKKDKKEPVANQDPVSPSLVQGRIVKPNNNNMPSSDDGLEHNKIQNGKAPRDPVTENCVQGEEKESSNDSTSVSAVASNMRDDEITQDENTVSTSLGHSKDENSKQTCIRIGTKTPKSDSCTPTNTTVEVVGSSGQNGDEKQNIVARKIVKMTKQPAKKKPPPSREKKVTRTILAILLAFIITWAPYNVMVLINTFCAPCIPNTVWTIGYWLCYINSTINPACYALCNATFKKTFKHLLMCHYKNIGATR

[6] = target: T4, recombinant human H3 histamine receptor (Homo sapiens, UniProt Q9Y5N1); assay: Histamine H3 receptor radioligand binding; conditions: [3H]R(−)-α-Methylhistamine 3 nM, human rCHO-K1 cell membranes; up to 30 μM
T4 construct: expressed in transfected cells; host or cells: CHO cells (membranes)
T4 sequence (Q9Y5N1 whole entry): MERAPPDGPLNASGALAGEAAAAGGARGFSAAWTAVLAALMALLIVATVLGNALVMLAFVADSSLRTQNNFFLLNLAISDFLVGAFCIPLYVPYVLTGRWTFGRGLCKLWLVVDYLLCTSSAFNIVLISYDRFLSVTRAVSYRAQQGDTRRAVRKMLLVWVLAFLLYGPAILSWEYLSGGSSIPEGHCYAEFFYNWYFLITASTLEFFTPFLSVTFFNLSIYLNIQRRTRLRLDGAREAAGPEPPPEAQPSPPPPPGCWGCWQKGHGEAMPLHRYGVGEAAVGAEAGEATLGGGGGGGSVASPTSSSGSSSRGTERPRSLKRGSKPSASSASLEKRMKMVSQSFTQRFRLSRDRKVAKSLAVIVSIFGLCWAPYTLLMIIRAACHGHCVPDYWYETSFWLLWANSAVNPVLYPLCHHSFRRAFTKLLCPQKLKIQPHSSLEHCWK
Protocol: as §2

[7] = target: T5, recombinant human H2 histamine receptor (Homo sapiens, UniProt P25021); assay: Histamine H2 receptor radioligand binding; conditions: [125I]-Aminopotentidine 0.1 nM, human rCHO-K1 cell membranes; up to 30 μM
T5 construct: expressed in transfected cells; host or cells: CHO cells (membranes)
T5 sequence (P25021 whole entry): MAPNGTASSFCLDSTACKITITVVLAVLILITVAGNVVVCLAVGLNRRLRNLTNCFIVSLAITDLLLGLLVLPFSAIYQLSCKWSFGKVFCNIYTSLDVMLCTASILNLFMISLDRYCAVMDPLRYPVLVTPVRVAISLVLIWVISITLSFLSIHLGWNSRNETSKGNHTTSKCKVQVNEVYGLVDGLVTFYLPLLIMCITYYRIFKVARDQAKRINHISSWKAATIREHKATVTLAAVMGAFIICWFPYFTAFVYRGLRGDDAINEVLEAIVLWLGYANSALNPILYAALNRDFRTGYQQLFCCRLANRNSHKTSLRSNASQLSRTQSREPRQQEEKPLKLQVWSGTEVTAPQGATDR
Protocol: as §2

[8] = target: T6, recombinant human M4 muscarinic acetylcholine receptor (Homo sapiens, UniProt P08173); assay: Muscarinic M4 receptor radioligand binding; conditions: 3H-N-Methylscopolamine 0.8 nM, CHO cell membranes
T6 construct: expressed in transfected cells; host or cells: CHO cells (membranes)
T6 sequence (P08173 1-479): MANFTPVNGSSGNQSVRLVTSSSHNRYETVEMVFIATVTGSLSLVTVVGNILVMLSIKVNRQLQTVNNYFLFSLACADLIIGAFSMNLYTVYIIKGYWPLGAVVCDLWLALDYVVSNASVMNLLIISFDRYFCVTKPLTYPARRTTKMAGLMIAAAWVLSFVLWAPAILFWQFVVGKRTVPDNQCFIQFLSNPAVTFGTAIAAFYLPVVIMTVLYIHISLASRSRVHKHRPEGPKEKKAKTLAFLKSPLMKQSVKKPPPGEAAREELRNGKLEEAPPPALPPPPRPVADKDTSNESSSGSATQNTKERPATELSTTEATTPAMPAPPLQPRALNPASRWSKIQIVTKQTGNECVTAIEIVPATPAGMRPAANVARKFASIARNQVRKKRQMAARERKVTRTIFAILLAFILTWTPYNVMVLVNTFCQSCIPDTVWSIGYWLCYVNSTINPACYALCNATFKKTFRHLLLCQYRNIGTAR

[9] = target: T7, recombinant human H1 histamine receptor (Homo sapiens, UniProt P35367); assay: Histamine H1 receptor radioligand binding; conditions: for Ki: [3H]-Pyrilamine 1.2 nM, human rCHO cell membranes; for Fold change in binding affinity at H1: relative to Promethazine
T7 construct: expressed in transfected cells; host or cells: CHO cells (membranes)
T7 sequence (P35367 whole entry): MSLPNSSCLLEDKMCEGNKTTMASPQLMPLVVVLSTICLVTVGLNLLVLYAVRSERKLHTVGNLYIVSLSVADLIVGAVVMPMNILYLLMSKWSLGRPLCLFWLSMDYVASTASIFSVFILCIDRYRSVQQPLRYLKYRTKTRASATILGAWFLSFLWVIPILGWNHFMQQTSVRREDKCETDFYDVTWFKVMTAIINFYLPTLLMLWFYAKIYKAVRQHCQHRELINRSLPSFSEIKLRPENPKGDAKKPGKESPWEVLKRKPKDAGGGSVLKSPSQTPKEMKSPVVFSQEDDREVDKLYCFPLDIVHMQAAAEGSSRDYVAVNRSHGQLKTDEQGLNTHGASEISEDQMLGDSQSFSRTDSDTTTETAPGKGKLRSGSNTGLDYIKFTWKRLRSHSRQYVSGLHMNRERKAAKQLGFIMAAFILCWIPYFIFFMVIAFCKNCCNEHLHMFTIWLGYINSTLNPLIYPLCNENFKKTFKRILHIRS
Protocol: as §2

Brain:plasma ratio = type: in vivo; conditions: rat, brain and plasma, iv; rats, 5 mg/kg intravenously, one hour after injection; brain (ng/g) / plasma (ng/mL)
Protocol: An hour following injection, the animals were sacrificed and plasma and brain were collected and frozen immediately. Following tissue and plasma extractions, concentrations of the compounds in brain and plasma were measured using LC-MS/MS. The brain:plasma ratio was calculated as the ratio of measured concentrations in the brain(ng/g) and plasma (ng/mL).

[10] = system: CD-1 male mice (visceral pain); assay: Analgesic assay: acetic acid writhing; type: in vivo; conditions: Dose 10 mg/kg, single pretreatment 30 min before IP 0.5% acetic acid; contractions counted 0-20 min
Protocol: An analgesic assay was used to determine whether a given compound can reduce and/or prevent visceral pain in mice.
Mice were treated according to standard protocols.
Contractions were counted between 0 and 20 minutes after the injection. The animals were used once.

[11] = aqueous solution, read-out: pKa

## CC(CN1c2ccccc2Sc2ccccc21)N(C)C (stereo not shown) [Promethazine, reference compound]
[1]
  Ki: 9.34 nM
[2]; read-out: LogP
  logP: 3.43
[3]
  Ki: > 30000 nM
[4]; [11]
  pKa: 8.99
[5]
  Ki: 26.4 nM
[6]
  Ki: > 30000 nM
[7]
  Ki: > 30000 nM
[8]
  Ki: 7.74 nM

## COCCOCCOCCN(C)C(C)CN1c2ccccc2Sc2ccccc21 (stereo not shown) [mPEG3-N-Promethazine, mPEG3-N-promethazine]
[2]; read-out: LogP
  logP: 3.65
[9]
  Ki: 2.28 nM
  Fold change in binding affinity at H1: 8.20
[3]
  Ki: > 30000 nM
[4]; [11]
  pKa: 8.4
[6]
  Ki: > 30000 nM
[7]
  Ki: > 30000 nM

## COCCOCCOCCOCc1ccc2c(c1)Sc1ccccc1N2CC(C)N(C)C (stereo not shown) [mPEG3-O-Promethazine, mPEG3-O-promethazine]
[9]
  Ki: 7.62 nM
  Fold change in binding affinity at H1: 27.41
[3]
  Ki: > 30000 nM
[6]
  Ki: > 30000 nM
[7]
  Ki: > 30000 nM

## COCCOCCOCCOCCN(C)C(C)CN1c2ccccc2Sc2ccccc21 (stereo not shown) [mPEG4-N-Promethazine, mPEG4-N-promethazine]
[2]; read-out: LogP
  logP: 3.51
[9]
  Ki: 1.95 nM
  Fold change in binding affinity at H1: 7.01
[3]
  Ki: > 30000 nM
[4]; [11]
  pKa: 8.45
Brain:plasma ratio
  Kp at 1 h: 1.86
[6]
  Ki: > 30000 nM
[7]
  Ki: > 30000 nM

## COCCOCCOCCOCCOCCN(C)C(C)CN1c2ccccc2Sc2ccccc21 (stereo not shown) [mPEG5-N-Promethazine, mPEG5-N-promethazine]
[2]; read-out: LogP
  logP: 3.6
[9]
  Ki: 8.53 nM
  Fold change in binding affinity at H1: 30.68
[3]
  Ki: > 30000 nM
[4]; [11]
  pKa: 8.67
Brain:plasma ratio
  Kp at 1 h: 0.243
[5]
  Ki: 817 nM
[6]
  Ki: > 30000 nM
[7]
  Ki: > 30000 nM

## COCCOCCOCCOCCOCCOCc1ccc2c(c1)Sc1ccccc1N2CC(C)N(C)C (stereo not shown) [mPEG5-O-Promethazine, mPEG5-O-promethazine]
[9]
  Ki: 7.16 nM
  Fold change in binding affinity at H1: 25.76
[3]
  Ki: > 30000 nM
[6]
  Ki: > 30000 nM
[7]
  Ki: > 30000 nM

## COCCOCCOCCOCCOCCOCCN(C)C(C)CN1c2ccccc2Sc2ccccc21 (stereo not shown) [mPEG6-N-Promethazine, mPEG6-N-promethazine]
[1]
  Ki: 1740 nM
[2]; read-out: LogP
  logP: 3.25
[9]
  Ki: 13.2 nM
  Fold change in binding affinity at H1: 47.48
[3]
  Ki: > 30000 nM
[4]; [11]
  pKa: 8.53
Brain:plasma ratio
  Kp at 1 h: 0.098
[5]
  Ki: 337 nM
[6]
  Ki: > 30000 nM
[7]
  Ki: > 30000 nM

## COCCOCCOCCOCCOCCOCCOCCN(C)C(C)CN1c2ccccc2Sc2ccccc21 (stereo not shown) [mPEG7-N-Promethazine, mPEG7-N-promethazine]
[1]
  Ki: 905 nM
[2]; read-out: LogP
  logP: 3
[9]
  Ki: 16.9 nM
  Fold change in binding affinity at H1: 60.79
[3]
  Ki: > 30000 nM
[4]; [11]
  pKa: 8.49
Brain:plasma ratio
  Kp at 1 h: 0.112
[5]
  Ki: 90 nM
[6]
  Ki: > 30000 nM
[7]
  Ki: > 30000 nM
[8]
  Ki: 435 nM

## COCCOCCOCCOCCOCCOCCOCCOCc1ccc2c(c1)Sc1ccccc1N2CC(C)N(C)C (stereo not shown) [mPEG7-O-Promethazine, mPEG7-O-promethazine]
[9]
  Ki: 33.2 nM
  Fold change in binding affinity at H1: 119.42
[3]
  Ki: > 30000 nM
[6]
  Ki: > 30000 nM
[7]
  Ki: > 30000 nM

## COCCOCCOCCOCCOCCOCCOCCOCCOCCOCc1ccc2c(c1)Sc1ccccc1N2CC(C)N(C)C (stereo not shown) [mPEG9-O-Promethazine, mPEG9-O-promethazine]
[9]
  Ki: 45.1 nM
  Fold change in binding affinity at H1: 162.23
[3]
  Ki: > 30000 nM
[6]
  Ki: > 30000 nM
[7]
  Ki: > 30000 nM

## mPEG8-N-Promethazine
[2]
  logP: 2.648
[4]; aqueous pKa, 25° C., average of three measurements
  pKa: 8.238

## mPEG9-N-promethazine
[5]
  Ki: 308 nM
[6]
  Ki: > 30000 nM
[7]
  Ki: > 30000 nM
[10]
  Acetic Acid Writhing Mean (% Morphine): −59.69 % Morphine
